Among the data in US6057335A, “Pyrazole derivatives” (Banyu Pharmaceutical Co., Ltd., priority 1996, dated 2000) are IC50 values, retold here.

The target of this assay is T1, human NPY Y5 receptor (Homo sapiens, UniProt Q15761).
T1 construct: expressed in transfected cells; host or cells: COS-7, CHO and LM(tk-)
T1 sequence (Q15761 1-445): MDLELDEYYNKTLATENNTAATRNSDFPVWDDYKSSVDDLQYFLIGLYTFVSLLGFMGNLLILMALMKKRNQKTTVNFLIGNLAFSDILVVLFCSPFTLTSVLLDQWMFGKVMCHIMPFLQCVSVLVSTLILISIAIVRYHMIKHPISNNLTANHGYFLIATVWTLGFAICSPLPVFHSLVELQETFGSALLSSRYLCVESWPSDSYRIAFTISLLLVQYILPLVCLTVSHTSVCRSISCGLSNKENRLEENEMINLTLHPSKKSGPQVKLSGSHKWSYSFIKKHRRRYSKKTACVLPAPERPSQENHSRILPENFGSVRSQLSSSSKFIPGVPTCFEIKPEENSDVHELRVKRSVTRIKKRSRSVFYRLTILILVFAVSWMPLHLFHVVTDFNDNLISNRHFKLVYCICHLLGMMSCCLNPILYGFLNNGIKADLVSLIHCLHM
As to the kind of experiment: test of inhibition of NPY binding ([125I] peptide YY binding to NPY Y5 receptor). The note with it: [125I] peptide YY 20,000 cpm, 25° C., 2 hours, pH 7.4, membrane preparations of cells expressing NPY Y5 receptor; read-out: IC50 value (concentration needed to inhibit 50% of the specific binding to the peptide YY). An excerpt: Pharmacological Test Example 1 (test of inhibition of NPY binding)
cDNA Sequence encoding a human NPY Y5 receptor [International Publication WO 96/16542] was cloned into expression vectors pcDNA3, pRc/RSV (manufactured by Invitrogen) and pCI-neo (manufactured by Promega). Using the cationic lipid method [see Proceedings of the National Academy of Science of the United States of America, vol.84, p.7413 (1987)], host cells COS-7, CHO and LM(tk-) (American Type Culture Collection) were transfected with the thus prepared expression vectors to obtain cells in which the NPY Y5 receptor had been expressed.
Each of the membrane preparations thus prepared from the cells in which the NPY Y5 receptor had been expressed was incubated together with each compound to be tested and 20,000 cpm of [^125 I] peptide YY (manufactured by Amersham) at 25° C. for 2 hours in an assay buffer solution (25 mM HEPES buffer, pH 7.4, containing 10 mM magnesium chloride, 1 mM phenylmethylsulfonyl fluoride and 0.1% bacitracin) and then, the reaction mixture was filtered through a glass filter GF/C. After washing with 50 mM Tris buffer, pH 7.4, containing 0.3% BSA, radioactivity on the glass filter was measured using a gamma counter. […]

Molecules are shown by their SMILES.

In the case of `COc1ccc(-c2cc(NC(=O)C3Cc4cc5ccccc5cc4C3)n[nH]2)cc1OC` [Example 30, 3-(2,3-dibydro-1H-cyclopenta[b]naphthalen-2-yl)carbonylamino-5-(3,4-dimethoxyphenyl)pyrazole], the IC50 came out at 2.5 nM.
